According to patent publication US20230220063A1, “IL-1BETA BINDING ANTIBODIES FOR USE IN TREATING CANCER” (NOVARTIS AG, priority 2017, published 2023):

B1: Vantictumab: a therapeutic antibody which binds 5/10 Frizzled receptors (anti-Wnt) (antibody, chains of the INN, looked up, V domains shown)
VH: EVQLVESGGGLVQPGGSLRLSCAASGFTFSHYTLSWVRQAPGKGLEWVSVISGDGSYTYYADSVKGRFTISSDNSKNTLYLQMNSLRAEDTAVYYCARNFIKYVFANWGQGTLVTVSS
VL: DIELTQPPSVSVAPGQTARISCSGDNIGSFYVHWYQQKPGQAPVLVIYDKSNRPSGIPERFSGSNSGNTATLTISGTQAEDEADYYCQSYANTLSLVFGGGTKLTVL

Assays:
[1] = Gevokizumab clinical pharmacokinetics; format: in vivo, human
[2] = system: hsCRP; test: Gevokizumab: hsCRP change in type 2 diabetes patients; format: in vivo, human; conditions: top dose 0.3 mg/kg (~20 mg) Q4W
[3] = system: vasculature in trabecular bone; test: Blocking IL-1β signalling: blood vessels in the bone microenvironment of mice; format: in vivo
Procedure: Vasculature was visualised following CD34 and endomucin immunohistochemistry and the concentration of vascular endothelial growth factor (VEGF) and endothelin-1 in serum and/or bone marrow was determined by ELISA. Effects on bone volume were measured by Micro computed tomography (uCT).
(§1) Tumor cells, serum, and bone were subsequently resected for downstream analysis.

[4] = system: MDA-MB-231 Luc2-TdTomato cells; test: Spontaneous human breast cancer metastasis to human bone implants in NOD SCID mice; format: in vivo
Procedure: To model human breast cancer metastasis to human bone implants two human bone discs were implanted subcutaneously into 10-week old female NOD SCID mice (n=10/group) under isofluorane anaesthetic. Mice received an injection of 0.003 mg vetergesic and Septrin was added to the drinking water for 1 week following bone implantation. Mice were left for 4 weeks before injecting 1×10^5 MDA-MB-231 Luc2-TdTomato, MCF7 Luc2 or T47D Luc2 cells in 20% Martigel/79% PBS/1% […] into the two hind mammary fat pads. Primary tumor growth and development of metastases was monitored weekly using an IVIS […] system (Caliper Life Sciences) following sub-cutaneous injection of 30 mg/ml D-luciferin (Invitrogen). On termination of experiments mammary tumors, circulating tumor cells, serum and bone metastases were resected. RNA was processed for downstream analysis by real time PCR, and cell lysates were taken for protein analysis and whole tissue for histology as previously described (Nutter et al., 2014; Ottewell et al., 2014a).
as §1
Whole blood was centrifuged at 10,000 g for 5 minutes and the serum removed for ELISA assays. The cell pellet was re-suspended in 5 ml of FSM lysis solution (Sigma-Aldrich, Pool, UK) to lyse red blood cells. Remaining cells were re-pelleted, washed 3x in PBS and re-suspended in a solution of PBS/10% FCS. Samples from 10 mice per group were pooled prior to isolation of TdTomato positive tumor cells using a MoFlow High performance cell sorter (Beckman Coulter, Cambridge UK) with the […] laser line from a Coherent I-90C tenable argon ion (Coherent, Santa Clara, CA). TdTomato fluorescence was detected by a 555LP dichroic long pass and a 580/30 nm band pass filter. Acquisition and analysis of cells was performed using Summit 4.3 software. Following sorting cells were immediately placed in RNA protect cell reagent (Ambion, Paisley, Renfrew, UK) and stored at -80° C. before RNA extraction.

[5] = system: patient-derived breast cancer cells; test: Breast CSC mammosphere colony formation after exposure to human bone marrow in vitro; format: cell-based
Description: (§2) Dissemination of tumour cells to bone marrow is an early event in breast cancer, however these cells may lie dormant in the bone environment for many years prior to eventual colonisation. Treatment for bone metastases is not curative, therefore new adjuvant therapies preventing disseminated cells from becoming metastatic lesions may be an effective therapeutic option to improve clinical outcomes. There is evidence that cancer stemcells (CSCs) within breast tumours are the cells capable of metastasis; however, little is known about which bone marrow-derived factors support dormant CSC survival and eventual colonisation. Using in vitro culture of primary human bone marrow and patient-derived breast cancer cells, and in vivo metastasis models of human breast cancer cells implanted into mice, we investigated signalling pathways regulating CSC colony formation in bone.
(§3) Dissemination of tumour cells to bone marrow is an early event in breast cancer, but these cells may lie dormant in the bone environment for many years before the development of clinical bone metastases. There is evidence that cancer stem cells (CSCs) within breast tumours are the cells capable of metastasis, but the effect of the bone environment on the regulation of CSCs has not been investigated. […] CSC activity following isolation from the bone environment was measured using mammosphere colony formation.

[6] = system: human breast cancer cells; test: Spontaneous bone metastasis of human breast cancer cells implanted into mice; conditions: mouse
Description: as §2, §3

Molecule	Bioavailability ([1]; administered subcutaneously)	half-life ([1]; human, in vivo)	reduction of hsCRP [2]	average length of new blood vessels ([3]; 1 mg/kg for 21/31 days)	endothelin 1 and VEGF in the bone marrow (ELISA) ([3]; compared with control)	decrease in VEGF concentration ([3]; mice treated with 1 mg/kg for 21 days)	decrease in the concentration of endothelin-1 ([3]; mice treated with 1 mg/kg for 31 days)	average length of CD34^+ blood vessels in trabecular bone ([3]; p < 0.01 vs control)	mice with metastasis detected in human bone implants ([4]; 1 mg/kg IL-1Ra daily or 10 mg/kg canakinumab s.c. every 14 days from day 7, control 7 out of 10)	bone metastasis, photons/sec mean values ([4]; Placebo 3.60E+06)	size of bone metastases ([4]; compared with control group)	bone turnover and neovascularisation ([4]; mouse, in vivo)	onset of breast cancer metastasis in human bone ([4]; mouse, in vivo)	primary tumour growth ([4]; murine model of spontaneous human breast cancer metastasis to human bone)	tumor cells counted in whole blood ([4]; placebo 108 tumor cells/ml)	induction of CSC activity by the bone marrow in vitro [5]	spontaneous bone metastasis in vivo [6]
gevokizumab: high-affinity, humanized monoclonal antibody of the IgG2 isotype to interleukin-1β; INN number 9310; allosteric inhibitor	about 56%	about 35 days	up to 45%	–	–	–	–	–	–	–	–	–	–	–	–	–	–
Anakinra: IL-1 receptor antagonist, clinically available recombinant form of the receptor antagonist	–	–	–	downwards trend	reduced concentrations	22%	69%	reduced the average length of CD34^+ blood vessels	4 out of 10	4.83E+04 photons/sec	smaller than those detected in the control group	reduced bone turnover and neovascularisation	delayed onset of breast cancer metastasis in human bone	without affecting the development of primary breast cancer	3 tumor cells/ml	reverses induction of CSC activity	–
B1	–	–	–	–	–	–	–	–	–	–	–	–	–	–	–	reverses induction of CSC activity	prevents spontaneous bone metastasis
